In ChEMBL document CHEMBL1142746, “Triaryl bis-sulfones as cannabinoid-2 receptor ligands: SAR studies” (Bioorg Med Chem Lett, 2005):

Experiments:
[1] = target: Cannabinoid receptor 2 (Homo sapiens, UniProt P34972); test: Inhibition constant against Cannabinoid receptor 2
[2] = target: Cannabinoid receptor (Homo sapiens) (UniProt P34972+P21554); test: Ratio of inhibition against Cannabinoid receptor 1 and Cannabinoid receptor 2; format: protein assay
Cannabinoid receptor (Homo sapiens), sequence (P21554 whole entry, looked up): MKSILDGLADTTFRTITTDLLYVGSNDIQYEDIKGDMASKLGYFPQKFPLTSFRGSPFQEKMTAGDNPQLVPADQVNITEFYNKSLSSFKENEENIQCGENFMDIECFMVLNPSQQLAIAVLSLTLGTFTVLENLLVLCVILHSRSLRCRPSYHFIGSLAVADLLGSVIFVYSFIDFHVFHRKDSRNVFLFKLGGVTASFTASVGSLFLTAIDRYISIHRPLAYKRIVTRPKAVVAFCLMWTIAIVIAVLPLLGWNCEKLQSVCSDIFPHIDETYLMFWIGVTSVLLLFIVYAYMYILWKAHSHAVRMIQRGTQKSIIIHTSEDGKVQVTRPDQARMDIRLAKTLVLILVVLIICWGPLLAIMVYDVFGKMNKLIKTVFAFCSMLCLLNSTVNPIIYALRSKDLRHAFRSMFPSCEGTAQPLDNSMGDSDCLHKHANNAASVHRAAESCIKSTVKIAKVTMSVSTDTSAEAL
Cannabinoid receptor (Homo sapiens), sequence (P34972 whole entry, looked up): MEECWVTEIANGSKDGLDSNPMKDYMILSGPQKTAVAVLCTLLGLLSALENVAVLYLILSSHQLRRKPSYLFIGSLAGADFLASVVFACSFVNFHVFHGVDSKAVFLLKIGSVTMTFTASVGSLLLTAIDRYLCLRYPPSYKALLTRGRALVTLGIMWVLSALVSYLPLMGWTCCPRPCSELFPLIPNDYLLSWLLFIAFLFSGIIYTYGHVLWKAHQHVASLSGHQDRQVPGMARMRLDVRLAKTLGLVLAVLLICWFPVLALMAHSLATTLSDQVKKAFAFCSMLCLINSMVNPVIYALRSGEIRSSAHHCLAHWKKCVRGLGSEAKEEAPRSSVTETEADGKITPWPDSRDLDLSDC

Cannabinoid receptor 2, sequence (P34972 whole entry): as the sequence (P34972 whole entry, looked up) above

Row | SMILES | Ki [1] [nM] | Selectivity [2]
1 | C[C@H](NS(C)(=O)=O)c1ccc(S(=O)(=O)c2ccc(Cl)cc2S(=O)(=O)c2ccccc2F)cc1 | 1 | 4390
2 | COc1ccc(S(=O)(=O)c2ccc([C@H](C)NS(C)(=O)=O)cc2)c(S(=O)(=O)c2ccc(Cl)cc2)c1 | 0.9 | 1150
3 | C[C@H](NS(C)(=O)=O)c1ccc(Cc2ccc(C(F)(F)F)cc2S(=O)(=O)c2c(F)cccc2F)cc1 | 1.8 | 584
4 | C[C@H](NS(C)(=O)=O)c1ccc(S(=O)(=O)c2ccc(Cl)cc2C(C)(O)c2ccc(Cl)cc2)cc1 (stereo not given in full) | 230 | 25
5 | C=C(c1ccccc1F)c1cc(Cl)ccc1S(=O)(=O)c1ccc([C@H](C)NS(C)(=O)=O)cc1 | 247 | 17
6 | C[C@H](NS(C)(=O)=O)c1ccc(Cc2ccc(Cl)cc2S(=O)(=O)c2ccc(Cl)cc2)cc1 | 6.7 | 188
7 | C[C@H](NS(C)(=O)=O)c1ccc(Cc2ccc(C(F)(F)F)cc2S(=O)(=O)c2ccccc2F)cc1 | 1 | 674
8 | COc1ccc(S(=O)(=O)c2cc(OC)ccc2S(=O)(=O)c2ccc([C@@H](C)NS(C)(=O)=O)cc2)cc1 | 30 | 105
9 | CO/N=C(\c1ccc([C@H](C)NS(C)(=O)=O)cc1)c1ccc(Cl)cc1S(=O)(=O)c1ccc(Cl)cc1 | 406 | 5
10 | C[C@H](NS(C)(=O)=O)c1ccc(S(=O)(=O)c2ccc(C(F)(F)F)cc2S(=O)(=O)c2ccccc2F)cc1 | 0.9 | 3550
11 | C[C@H](NS(C)(=O)=O)c1ccc(S(=O)(=O)c2ccc(Cl)cc2S(=O)(=O)c2ccccc2Cl)cc1 | 6 | 1780
12 | Cc1ccc(S(=O)(=O)c2ccc([C@H](C)NS(C)(=O)=O)cc2)c(S(=O)(=O)c2ccccc2F)c1 | 0.5 | 1740
13 | C[C@H](NS(C)(=O)=O)c1ccc(S(=O)(=O)c2ccc(Cl)cc2C(C)(O)c2ccccc2F)cc1 (stereo not given in full) | 77 | 111
14 | CC(NS(C)(=O)=O)c1ccc(C(=O)c2ccc(OC(F)(F)F)cc2S(=O)(=O)c2ccccc2F)cc1 (stereo not given) | 179 | 28
15 | C[C@H](NS(C)(=O)=O)c1ccc(Cc2ccc(C(F)(F)F)cc2S(=O)(=O)c2cccc(F)c2)cc1 | 3.5 | 438
16 | C[C@H](NS(C)(=O)=O)c1ccc(S(=O)(=O)c2ccc(Cl)cc2C(=O)c2ccc(Cl)cc2)cc1 | 192 | 284
17 | COc1ccc(S(=O)(=O)c2cc(OC)ccc2Cc2ccc([C@H](C)NS(C)(=O)=O)cc2)cc1 | 0.6 | 1300
18 | CC(NS(C)(=O)=O)c1ccc(C(=O)c2ccc(Cl)cc2S(=O)(=O)c2ccc(Cl)cc2)cc1 (stereo not given) | 410 | 16
19 | C[C@H](NS(C)(=O)=O)c1ccc(S(=O)(=O)c2ccc(Cl)cc2Oc2ccc(Cl)cc2)cc1 | 983 | 3
20 | C[C@H](NS(C)(=O)=O)c1ccc(S(=O)(=O)c2ccccc2S(=O)(=O)c2ccccc2F)cc1 | 9 | 1450

Row | SMILES | Ki [1] [nM] | Selectivity [2]
21 | C[C@H](NS(C)(=O)=O)c1ccc(Cc2ccc(OC(F)(F)F)cc2S(=O)(=O)c2ccccc2F)cc1 | 0.4 | 1180
22 | COc1ccc(S(=O)(=O)c2ccc([C@H](C)NS(C)(=O)=O)cc2)c(S(=O)(=O)c2ccccc2)c1 | 0.6 | 2480
23 | C=C(c1ccc([C@H](C)NS(C)(=O)=O)cc1)c1ccc(OC(F)(F)F)cc1S(=O)(=O)c1ccccc1F | 86 | 19
24 | COc1ccc(S(=O)(=O)c2cc(OC)ccc2C(=O)c2ccc([C@H](C)NS(C)(=O)=O)cc2)cc1 | 44 | 108
25 | C[C@H](NS(C)(=O)=O)c1ccc(S(=O)(=O)c2ccccc2S(=O)(=O)c2ccc(Cl)cc2)cc1 | 58 | 127
26 | C[C@H](NS(C)(=O)=O)c1ccc(S(=O)(=O)c2ccc(Cl)cc2S(=O)(=O)c2ccc(Cl)cc2)cc1 | 10 | 687
27 | C[C@H](NS(C)(=O)=O)c1ccc(S(=O)(=O)c2ccc(OC3CCCC3)cc2S(=O)(=O)c2ccc(Cl)cc2)cc1 | 232 | 11
28 | C[C@H](NS(C)(=O)=O)c1ccc(S(=O)(=O)c2ccc(Cl)cc2S(=O)(=O)c2cccc(Cl)c2)cc1 | 23 | 238
29 | C[C@H](NS(C)(=O)=O)c1ccc(Cc2ccc(OC(F)(F)F)cc2S(=O)(=O)c2cccc(C(F)(F)F)c2)cc1 | 35 | 27
30 | CCC(c1ccc([C@H](C)NS(C)(=O)=O)cc1)c1ccc(Cl)cc1S(=O)(=O)c1ccc(Cl)cc1 (stereo not given in full) | 76 | 48
31 | C[C@H](NS(C)(=O)=O)c1ccc(S(=O)(=O)c2ccc(O)cc2S(=O)(=O)c2ccc(Cl)cc2)cc1 | 13 | 2320
32 | C[C@H](NS(C)(=O)=O)c1ccc(S(=O)(=O)c2ccc(Cl)cc2S(=O)(=O)c2ccccc2OC(F)(F)F)cc1 | 128 | 134
33 | C[C@H](NS(C)(=O)=O)c1ccc(Cc2ccc(OC(F)(F)F)cc2S(=O)(=O)c2ccccc2OC(F)(F)F)cc1 | 16 | 60
34 | COc1ccc(S(=O)(=O)c2cc(OC)ccc2S(=O)(=O)c2ccc(CNS(C)(=O)=O)cc2)cc1 | 1.3 | 2170
35 | C[C@H](NS(C)(=O)=O)c1ccc(S(=O)(=O)c2ccc(Cl)cc2Nc2ccc(Cl)cc2)cc1 | 278 | 5
36 | C[C@H](NS(C)(=O)=O)c1ccc(S(=O)(=O)c2ccc(C(F)(F)F)cc2S(=O)(=O)c2ccc(Cl)cc2)cc1 | 8 | 558
37 | COc1ccc(S(=O)(=O)c2cc(OC)ccc2S(=O)(=O)c2ccc(C(C)(C)NS(C)(=O)=O)cc2)cc1 | 6 | 282
38 | C[C@H](NS(C)(=O)=O)c1ccc(S(=O)(=O)c2ccc(Cl)cc2S(=O)(=O)c2ccccc2)cc1 | 2 | 1940
39 | C[C@H](NS(C)(=O)=O)c1ccc(S(=O)(=O)c2ccc(Cl)cc2Cc2ccc(Cl)cc2)cc1 | 164 | 11
40 | COc1ccc(S(=O)(=O)c2cc(OC)ccc2S(=O)(=O)c2ccc([C@H](C)NS(C)(=O)=O)cc2)cc1 | 0.4 | 2260
